Results reported in patent US12060588B2, “Methods of editing DNA methylation” (Whitehead Institute for Biomedical Research, priority 2016, dated 2024).

Tested on: C3H10T1/2 mouse embryonic fibroblast cells
Assay: Fibroblast-to-myoblast conversion assay
Type: cell-based
Source text: FIGS. 4A-4H depict targeted demethylation of the MyoD distal enhancer by dCas9-Tet1 to facilitate conversion of fibroblasts to myoblasts. FIG. 4A provides a schematic representation of targeting the MyoD distal enhancer (DE) region in DMR-5 by dCas9-Tet1 (dC-T) with specific gRNAs. […] Cherry positive cells were FACS sorted for RT-qPCR analysis. Bars represent mean±SD of three experimental replicates. FIG. 4C bisulfite sequencing of cells in FIG. 4B. […] Shown is the mean percentage±SD of two biological replicates. […] C3H10T1/2 cells were plated as 1×10^4 cells per well in 6-well plate, and then infected with lentiviruses expressing dC-T and gRNAs targeting DMR-5, or a catalytic dead form of Tet1 (dC-dT) with target gRNAs. 24-hour post infection, cells were treated with vehicle control (HEPES buffer) or 5-Azacytidine (1 uM) for 24-hour, and then harvested after 14 days for immunofluorescence staining. Stained in green for MyoD, magenta for MHC and blue for DAPI. Scale bar: 200 um. FIG. 4F provides quantification of MyoD positive cell ratio 14-day post infection with lentiviruses expressing dC-T alone, dC-T with gRNAs targeting DMR-5, and dC-dT with the target gRNAs. […] FIG. 4H provides quantification of myotube density in MHC positive clusters with more than 2 or 5 nuclei at 14-days after infection. […] Data are quantified from 3-5 representative images for F-H. Bars represent mean±SD.
FIGS. 12A-12J depict targeted demethylation of the MyoD DMR-5 by dCas9-Tet1 and conversion of fibroblasts to myoblasts. […] PAM for each sgRNA is highlighted by a red box. FIG. 12B provides experimental scheme of the fibroblast-to-myoblast conversion assay. Briefly, C3H10T1/2 mouse embryonic fibroblast cells were plated as 1×10^4 cells per well in 6-well plate, and then infected with lentiviruses expressing dCas9-Tet1 and target gRNAs. 24-hour post infection, cells were optionally treated with 5-Azacytidine (1 uM) for 24-hour (labeled in red), and harvested for immunofluorescence staining at different time points (day-14, -16 and -25, labeled in dark blue) with medium change every other day. Scale bar: 100 um. […] Stained in green for MHC, red for MyoD and blue for DAPI. Scale bar: 200 um. FIG. 12D depicts a fraction of mock C3H10T1/2 cells expressing MyoD at different times after 5-Aza treatment. The fraction of cells expressing MyoD increases from around 6% at day 14 to around 13% at day 16 and reached around 20% at day 25. Bars represent mean±SD. FIG. 12E provides number of nuclei in MHC+ cell clusters (grouped as 1-2 and >2 nuclei per MHC+ cluster). […] Bars represent mean±SD. Data was quantified from 3-5 representative images for each group in FIG. 12D and FIG. 12E. […] Bars represent mean±SD of three experimental replicates. FIG. 12G provides representative images for C3H10T1/2 cells 16 days after infection with lentiviruses expressing dC-T and gRNAs targeting DMR-5 (MyoD distal enhancer) in a fibroblast-to-myoblast conversion assay as described in FIG. 12B. […] Stained in magenta for MHC, green for MyoD and blue for DAPI. Scale bar: 200 um. FIG. 12H depicts a fraction of MyoD positive cells 16 days after infection with lentiviruses expressing dC-T alone or with gRNAs targeting DMR-5. FIG. 12I show a number of nuclei in MHC+ cell clusters (grouped as 2-5, 6-10, 11-20 and >20 nuclei per MHC+ cluster) 16 days after infection. […] Data are quantified from 3-5 representative images for FIGS. 12H-12J. Bars represent mean±SD.
We then investigated whether targeted demethylation of DMR-5 would synergize with 5-Aza treatment to induce myotube formation (FIG. 12B). To follow the process of myotube formation after 5-Aza treatment, a time-course experiment was performed. Multi-nucleated myotube (MHC-positive) with heterogeneous sizes began to form 14 days post treatment, and both MyoD-positive cell ratio and myotube density and size then increased up to day-25 (FIGS. 12C-12E). […]

For “dCas9-Tet1: catalytically inactive Cas9 (dCas9) fused through NLS to the Tet1 catalytic domain, SEQ ID NO: 159; lentivirally expressed with gRNAs”, the “MyoD expression level (immunofluorescence)” value (with gRNAs targeting DMR-5, 14 days, absence of 5-Aza) was “moderate expression level of MyoD”, the myotube formation (with gRNAs targeting DMR-5, 14 days, absence of 5-Aza treatment) was “not sufficient to induce myotube formation” and the “myotube formation (MHC+ clusters, >2 nuclei per cluster)” value (with gRNAs targeting MyoD DMR-5 plus 5-Aza, 14 days post-treatment, versus dCas9-Tet1 only or dC-dT) was “facilitated the myotube formation”.
